According to patent US12491181B2, “Nimodipine injection composition and preparation method therefor” (priority 2018, dated 2025):
≈ marks a conversion by molar mass, not a printed value. Read-outs that look alike come from different tables or passages of the source.

What was measured:
[1] = cited from earlier work
[2] = tested on: Wild-type AB zebrafish larvae; assay: Zebrafish cardiovascular toxicity, administration by dissolving the drug into the water; assay type: in vivo; parameters: Mortality / Incidence of Atrial Arrest: unit not given here
[3] = tested on: Wild-type AB zebrafish larvae; assay: Zebrafish cardiovascular toxicity, administration via yolk sac injection; assay type: in vivo; conditions: yolk sac injection 10 nl
Experimental: Wild-type AB zebrafish larvae were treated with the drugs to be tested for 24 hours via yolk sac injection administration with a maximum dose volume of 40 nl, and the five initial test concentrations were: 0.1 mg/mL, 1 mg/mL, 10 mg/mL, 100 mg/mL, and 500 mg/mL, respectively. At the same time, a blank control group was set up, with 30 zebrafish treated at each concentration. At the end of drug treatment, the number of zebrafish deaths in each experimental group was counted to provide a basis for the next experimental concentration design.
2.2.1 10 nl was administered via yolk sac injection. After treatment for a certain period of time, 10 zebrafish were randomly selected to have their heart rates counted, and their relative heart rates were calculated for comparison.
2.2.3 10 zebrafish in each group were randomly selected and observed under the dissecting microscope. […]
Three formal experimental concentrations were set. After treatment for a certain period of time, 10 zebrafish were randomly selected to have their heart rates counted, and their relative heart rates were calculated for comparison.

[4] = Solubility Test for Nimodipine in Oil Phase; assay type: physicochemical; conditions: normal temperature; for solubility: oil or lipid
Description: There are different crystalline forms for nimodipine, i.e. α and β. The solubility is different in solvents for different crystalline forms. […] The solubility in an oil phase was not reported yet. […] Furthermore, the solubility of α-type is much greater than that of β-type both in the medium-chain fatty oil and the mixture of soybean oil and medium-chain fatty oil (see the table below). Therefore, formulating α-type nimodipine into a fat emulsion injection may solve the problems of low drug loading efficiency, poor safety, and poor stability occurring in its solution for injection and other fat emulsions for injection developed by the prior art. [table]

[5] = cited from earlier work; remark: listed apart in the source
guinea pigs = assay: Active Systemic Anaphylaxis Test in Guinea Pigs; conditions: positive control group, after stimulation
SD rats = assay: Passive Anaphylaxis Test in Rats; assay type: in vivo, rat; parameters: key to Blue Stain Reaction: − indicates negative; + indicates positive; conditions: sensitized SD rats, 100 mg/kg intravenously, positive control
[6] = dissolved into the water, 0.625 μg/ml
[7] = dissolved into the water, 1.25 μg/ml
[8] = dissolved into the water, 2.5 μg/ml
[9] = dissolved into the water, 5.0 μg/ml

## COCCOC(=O)C1=C(C)NC(C)=C(C(=O)OC(C)C)C1c1cccc([N+](=O)[O-])c1 (centres unmarked) [Drug substance, Nimodipine]
[1]; healthy subjects
  oral bioavailability: 5-13%
[1]; in vivo
  biological half-life: 1.5-2 h
[1]; patients with subarachnoid hemorrhage
  oral bioavailability: 3-28%
[2]; dissolved into the water
  concentration at which pericardial edema was induced in all zebrafish: 5000 ng/mL
[2]; [6]
  Incidence of Atrial Arrest: 0
  Incidence of Pericardial Edema: 10
  Mortality: 0
  Relative Heart Rate: 97.0
[2]; [7]
  Incidence of Atrial Arrest: 0
  Incidence of Pericardial Edema: 20
  Mortality: 0
  Relative Heart Rate: 94.8
[2]; [8]
  Incidence of Atrial Arrest: 10
  Incidence of Pericardial Edema: 50
  Mortality: 0
  Relative Heart Rate: 76.4
[2]; [9]
  Incidence of Atrial Arrest: 90
  Incidence of Pericardial Edema: 100
  Mortality: 26.7
  Relative Heart Rate: 58.5
  incidence of atrial arrest: 90%
[2]; zebrafish, drug dissolved into the water, 24 hours
  maximum non-lethal concentration: 2.5 µg/mL
[3]; 0.5 mg/ml
  Actual Heart Rate (± SD): 159.0 ± 6.8 beat / min
  Incidence of Circulatory Insufficiency: 0%
  Incidence of Decreased Blood Flow: 0%
  Incidence of Pericardial Edema: 0%
  Mortality: 0%
  Relative Heart Rate (± SD): 99.1 ± 4.2%
[3]; 1.0 mg/ml
  Actual Heart Rate (± SD): 159.6 ± 5.3 beat / min
  Incidence of Circulatory Insufficiency: 0%
  Incidence of Decreased Blood Flow: 10%
  Incidence of Pericardial Edema: 20%
  Mortality: 0%
  Relative Heart Rate (± SD): 99.4 ± 3.3%
[3]; 2.0 mg/ml
  Actual Heart Rate (± SD): 158.4 ± 8.7 beat / min
  Incidence of Circulatory Insufficiency: 10%
  Incidence of Decreased Blood Flow: 10%
  Mortality: 0%
  Relative Heart Rate (± SD): 98.7 ± 5.4%
[3]; 2.0 mg/ml (67 mg/kg)
  Incidence of Pericardial Edema: 30%
[3]; 4.0 mg/ml
  Actual Heart Rate (± SD): 166.5 ± 7.2 beat / min
  Incidence of Circulatory Insufficiency: 10%
  Incidence of Decreased Blood Flow: 40%
  Incidence of Pericardial Edema: 60%
  Mortality: 20%
  Relative Heart Rate (± SD): 103.7 ± 4.5%
[3]; 8.0 mg/ml
  Actual Heart Rate (± SD): 167.1 ± 10.2 beat / min
  Incidence of Circulatory Insufficiency: 40%
  Incidence of Decreased Blood Flow: 10%
  Incidence of Pericardial Edema: 60%
  Mortality: 33.3%
  Relative Heart Rate (± SD): 104.1 ± 6.4%
[3]; 16 mg/ml
  Actual Heart Rate (± SD): 166.8 ± 10.3 beat / min
  Incidence of Circulatory Insufficiency: 40%
  Incidence of Decreased Blood Flow: 30%
  Incidence of Pericardial Edema: 70%
  Mortality: 50%
  Relative Heart Rate (± SD): 103.9 ± 6.4%
[3]; 32 mg/ml
  Actual Heart Rate (± SD): 144.5 ± 7.4 beat / min
  Incidence of Circulatory Insufficiency: 100%
  Incidence of Decreased Blood Flow: 0%
  Incidence of Pericardial Edema: 100%
  Mortality: 80%
  Relative Heart Rate (± SD): 90.0 ± 4.6 %

## COCCOC(=O)C1=C(C)NC(C)=C(C(=O)OC(C)C)C1c1cccc([N+](=O)[O-])c1 (stereo not drawn) [α-type, nimodipine]
[4]
  Solubility, Medium-chain Oil: 23.22 mg/mL (≈ 55.5 mM)
  Solubility, Soybean Oil: 7.5 mg/mL (≈ 17.9 mM)
  Solubility, Soybean Oil:Medium-chain Oil (4:6): 18.1 mg/mL (≈ 43.3 mM)

## COCCOC(=O)C1=C(C)NC(C)=C(C(=O)OC(C)C)C1c1cccc([N+](=O)[O-])c1 (stereo not drawn) [β-type, nimodipine]
[5]; normal temperature
  Solubility, Water: 0.0036 mg/mL (≈ 0.0086 mM)
[5]; published literature
  solubility in water: 0.0036 mg/mL (≈ 0.0086 mM)
[4]; medium-chain oil, read-out: Solubility, Medium-chain Oil
  solubility: 11.8 mg/mL (≈ 28.2 mM)
[4]; soybean oil, read-out: Solubility, Soybean Oil
  solubility: 6.7 mg/mL (≈ 16 mM)
[4]; soybean oil:medium-chain oil (4:6), read-out: Solubility, Soybean Oil:Medium-chain Oil (4:6)
  solubility: 11 mg/mL (≈ 26.3 mM)

## bovine serum albumin: positive control of the anaphylaxis tests
Guinea pigs
  intensity of anaphylaxis reaction: ++˜++++
  mortality rate: 50%
  total reaction rate: 100%
SD rats
  Blue Stain Reaction: +
  Blue Stain Reaction (diameter): 22.0 ± 4.3 mm
